# Patent publication US20030027981A1, “Urokinase-type plasminogen activator receptor” (priority 1989, published 2003)
# Legend:
# [1] = tested on: u-PA; experiment: u-PA activity in medium of HT-1080 cultures (immunocapture assay); type: cell-based, human
# Method: Cell culture supernatants were assayed for pro-u-PA and active u-PA by the following modification of an immunocapture method (Stephens et al., 1988; Stephens et al., 1987). Microtitre wells of polystyrene immunoplates (type 269620, A/S Nunc, Roskilde, Denmark) were coated overnight at 37° C. with 50 μl of a solution of goat IgG antibodies to human u-PA (cat. #398, American Diagnostica). The coating solution contained 2.5 μg of IgG per ml of […] sodium carbonate (pH 9.8). After rinsing, the wells were treated with conditioned medium ([…]) for 2 hours at 23° C., then rinsed again. Half the wells were then treated with 50 μl of freshly prepared 2 μM p-nitrophenyl guanidinobenzoate (NPGB, Sigma) (Danø, K., and E. Reich, “Plasminogen activator from cells transformed by an oncogenic virus—Inhibitors of the activator reaction”, Biochim. Biophys. Acta 566: 138-151, 1979) for 20 minutes at 37° C. The other half (controls) received 50 μl of rinsing buffer (0.05% Tween 20 in PBS). After rinsing, u-PA was assayed in all the wells by addition of 40 μl of plasminogen solution (100 μg/ml in assay buffer consisting of 50 mM sodium glycinate (pH 7.8), 0.1% Triton X-100, 0.1% gelatin and 10 mM 6-aminocaproic acid which also contained a very low concentration of plasmin (10 ng/ml)), and incubation took place for 30 minutes at 37° C. This concentration of plasmin in the plasminogen incubation was sufficient to enable full realization of the potential activity of pro-u-PA (cf. Petersen et al., 1988). The plasmin produced by this incubation was assayed by its thioesterase activity (Green, G. D. G., and E. Shaw, “Thiobenzyl benzyloxycarbonyl-L-lysinate, substrate for a sensitive colorimetric assay for trypsin-like enzymes”, Anal. Biochem. 93: 223-226, 1979) by the addition of 200 μl of a solution containing 200 mM potassium phosphate (pH 7.5), 200 MM KCl, 0.1% Triton X-100, 220 μM Z-lysine thiobenzyl ester (Peninsula Laboratories, Belmont, Calif.) and 220 μM 5,5′-dithiobis(2-nitrobenzoic acid) (Sigma). This mixture was incubated for 30 minutes at 37° C., and the absorbancies of the wells were read at 405 nm. Active u-PA (60,000 IU/mg) was purchased from Calbiochem-Behring (La Jolla, Calif.) and pro-u-PA (potential activity 90,000 IU/mg) was obtained from American Diagnostica.
# The following additions were made to cell layers growing in MEM medium (0.5 ml) containing 10% heat-inactivated and plasminogen-depleted fetal calf serum: native human plasminogen (Plg, 40 μg/ml); anti-catalytic monoclonal antibody to human u-PA (10 μg/ml); anti-catalytic monoclonal antibody to human t-PA (10 μg/ml); PAI-2 (titration equivalent of 3.6 UI u-PA/ml); anti-catalytic monoclonal antibody to human plasmin (20 μg/ml); aprotinin (200 KIU/ml); tranexamic acid (TA, as shown). The cultures were incubated for the times shown before assay of cell-bound plasmin. The incubation with plasminogen was used as the 100% control for bound plasmin.
# Confluent cell layers in serum medium (0.5 ml) were preincubated for 1 hour at 37° C. with an anti-catalytic monoclonal antibody to human u-PA (10 μg/ml) or PAI-2 (titration equivalent of 3.6 IU u-PA/ml). The cells were then rinsed three times with serum-free MEM medium before incubation for 3 hours at 37° C. with MEM medium containing 10% heat-inactivated and plasminogen-depleted fetal calf serum and native human plasminogen (Plg, 40 μg/ml). The incubation with plasminogen was used as the 100% control for bound plasmin while the control for u-PA was the incubation without plasminogen.
# [2] = tested on: HT-1080 cells; experiment: Plasmin release from plasmin-loaded HT-1080 cells; type: cell-based, human; conditions: 1 mM tranexamic acid added to the serum-containing medium
# Method: FIG. 24. Plasmin release from HT-1080 cells into serum-free and serum-containing media. Confluent layers of HT-1080 cells were first loaded with plasmin by incubation for 1 hour at 37° C. in serum-free MEM medium (0.5 ml) containing human plasmin (0-5 μg/ml). After rinsing the cell layers three times, they were incubated for 2 hours at 37° C. with either serum-free medium (∘ - - - ∘), medium containing 10% heat-inactivated and plasminogen-depleted fetal calf serum (● - - - ●), or the latter with tranexamic acid (100 μM) (▪ - - - ▪). Plasmin was then assayed in the cell-bound fraction (A) and the media (B). At the time of transfer to new media, there was approximately 28 ng of plasmin bound to the cells from the pretreatment with 2.5 μg of plasmin/well.
# In the Examples concerning plasmin binding to cells from medium, human plasmin (approximately 18 CU/mg; Kabi Diagnostica, Stockholm, Sweden) was added to the cultures at final concentrations of 0-5 μg/ml. The cells were incubated for 3 hours at 37° C. before assay of cell-bound and supernatant plasmin (see below). For plasmin release experiments, cells were loaded for 1 hour at 37° C. with 0-5 μg/ml plasmin in serum-free medium, then rinsed three times with MEM.
# Plasmin bound to the cell layer was recovered and assayed as follows. After harvest of culture medium, the cells were rinsed three times with PBS (plasmin assays of further rinses were negative); then the bound plasmin was specifically eluted (Miles, L. A., and E. F. Plow, “Binding and activation of plasminogen on the platelet surface”, J. Biol. Chem. 260: 4303-4311, 1985) with a solution of 1 mM tranexamic acid in the same rinsing solution (150 μl/well). Plasmin activity was assayed in eluate samples (50 μl) as above with an incubation time of 3 hours at 37° C. Tranexamic acid at 1 mM had no effect on the thioesterase activity of plasmin in these assays.
# [3] = molecular target: laminin; conditions: immobilized laminin; cited from earlier work
# [4] = molecular target: fibronectin (Homo sapiens, UniProt P02751); conditions: immobilized fibronectin; cited from earlier work
# [5] = 3 h, serum medium with Plg 40 μg/ml, additions as b555, control without Plg = 100
# [6] = 17 h, serum medium with Plg 40 μg/ml, additions as b555, control without Plg = 100
# Sequence of fibronectin (P02751 32-2477, species assumed): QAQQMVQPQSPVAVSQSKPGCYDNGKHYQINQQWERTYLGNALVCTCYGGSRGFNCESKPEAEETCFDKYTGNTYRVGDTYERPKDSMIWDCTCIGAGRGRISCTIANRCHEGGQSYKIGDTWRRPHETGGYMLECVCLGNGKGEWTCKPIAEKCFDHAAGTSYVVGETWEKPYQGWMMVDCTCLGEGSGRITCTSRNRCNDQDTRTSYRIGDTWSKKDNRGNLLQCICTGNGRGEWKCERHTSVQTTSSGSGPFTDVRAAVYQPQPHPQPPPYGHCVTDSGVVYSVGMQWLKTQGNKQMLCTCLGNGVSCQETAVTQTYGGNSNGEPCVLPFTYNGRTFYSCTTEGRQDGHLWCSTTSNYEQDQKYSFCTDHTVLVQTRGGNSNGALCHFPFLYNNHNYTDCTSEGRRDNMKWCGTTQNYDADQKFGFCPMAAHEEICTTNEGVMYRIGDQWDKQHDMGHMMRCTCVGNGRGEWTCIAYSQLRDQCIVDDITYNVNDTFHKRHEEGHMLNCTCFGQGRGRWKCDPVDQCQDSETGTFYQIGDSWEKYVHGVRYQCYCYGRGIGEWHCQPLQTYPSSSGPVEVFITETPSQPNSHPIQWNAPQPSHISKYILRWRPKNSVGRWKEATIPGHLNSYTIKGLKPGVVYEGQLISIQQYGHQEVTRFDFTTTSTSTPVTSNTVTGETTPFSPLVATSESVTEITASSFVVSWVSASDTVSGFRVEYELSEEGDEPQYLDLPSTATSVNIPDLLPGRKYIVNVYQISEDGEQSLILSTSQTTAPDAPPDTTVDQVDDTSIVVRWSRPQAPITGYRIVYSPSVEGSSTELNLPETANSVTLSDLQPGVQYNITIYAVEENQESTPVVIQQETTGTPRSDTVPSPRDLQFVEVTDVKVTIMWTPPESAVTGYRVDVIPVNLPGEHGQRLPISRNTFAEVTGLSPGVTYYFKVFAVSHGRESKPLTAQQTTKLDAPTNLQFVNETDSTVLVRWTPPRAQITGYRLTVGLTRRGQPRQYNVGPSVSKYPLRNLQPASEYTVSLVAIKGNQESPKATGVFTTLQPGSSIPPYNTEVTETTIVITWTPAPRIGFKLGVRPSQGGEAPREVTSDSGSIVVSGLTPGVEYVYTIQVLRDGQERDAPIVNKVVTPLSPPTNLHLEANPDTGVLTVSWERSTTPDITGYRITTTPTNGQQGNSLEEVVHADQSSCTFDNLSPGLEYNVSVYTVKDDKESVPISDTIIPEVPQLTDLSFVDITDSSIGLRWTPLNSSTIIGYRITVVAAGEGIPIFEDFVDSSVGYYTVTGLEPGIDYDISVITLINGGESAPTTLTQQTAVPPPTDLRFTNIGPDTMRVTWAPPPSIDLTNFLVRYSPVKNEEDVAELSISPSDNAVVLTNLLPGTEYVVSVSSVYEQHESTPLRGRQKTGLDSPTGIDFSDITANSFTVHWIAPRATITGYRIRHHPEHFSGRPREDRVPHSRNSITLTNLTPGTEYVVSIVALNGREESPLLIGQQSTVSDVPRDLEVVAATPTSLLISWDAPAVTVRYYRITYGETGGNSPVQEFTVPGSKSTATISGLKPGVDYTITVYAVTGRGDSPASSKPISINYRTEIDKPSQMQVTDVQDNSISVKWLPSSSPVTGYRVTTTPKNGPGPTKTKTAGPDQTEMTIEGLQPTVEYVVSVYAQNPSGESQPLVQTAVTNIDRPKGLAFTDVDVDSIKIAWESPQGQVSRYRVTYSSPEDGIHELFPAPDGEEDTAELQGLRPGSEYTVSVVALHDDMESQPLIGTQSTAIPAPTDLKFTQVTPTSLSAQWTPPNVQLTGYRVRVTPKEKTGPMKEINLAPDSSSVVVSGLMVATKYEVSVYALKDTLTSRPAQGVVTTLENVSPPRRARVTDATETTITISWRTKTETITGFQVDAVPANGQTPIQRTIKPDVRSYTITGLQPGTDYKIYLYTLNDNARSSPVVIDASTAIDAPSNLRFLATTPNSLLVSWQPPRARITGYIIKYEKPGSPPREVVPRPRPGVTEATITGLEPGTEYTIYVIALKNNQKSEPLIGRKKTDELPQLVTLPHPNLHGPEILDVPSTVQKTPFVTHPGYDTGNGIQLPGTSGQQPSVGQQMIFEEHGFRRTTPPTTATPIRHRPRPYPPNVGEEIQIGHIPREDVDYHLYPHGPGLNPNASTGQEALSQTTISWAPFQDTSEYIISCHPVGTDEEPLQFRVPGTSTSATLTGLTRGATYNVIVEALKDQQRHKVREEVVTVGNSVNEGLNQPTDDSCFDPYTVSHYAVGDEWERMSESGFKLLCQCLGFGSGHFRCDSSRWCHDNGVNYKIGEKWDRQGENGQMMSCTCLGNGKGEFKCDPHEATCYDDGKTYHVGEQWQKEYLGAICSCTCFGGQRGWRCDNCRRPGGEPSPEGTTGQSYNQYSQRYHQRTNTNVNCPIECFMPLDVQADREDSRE
Molecule,"u-PA activity in medium (%) ([1]; 3 h, Plg 40 μg/ml + TA 10 μM)","u-PA activity in medium (%) ([1]; 3 h, Plg 40 μg/ml + TA 100 μM)","u-PA activity in medium (%) ([1]; 17 h, Plg 40 μg/ml + TA 10 μM)","u-PA activity in medium (%) ([1]; 17 h, Plg 40 μg/ml + TA 100 μM)",Plasmin activity recovered from the cells [2],"u-PA activity in medium (%) [1, 5] [%]","u-PA activity in medium (%) [1, 6] [%]",Kd [3] [µM],Kd [4] [µM],"u-PA activity in medium (%) ([1]; cells preincubated 1 h with inhibitor, rinsed, then 3 h with Plg 40 μg/ml in serum medium)"
"NC[C@H]1CC[C@H](C(=O)O)CC1 [TA, tranexamic acid]",116,92,87,95,no plasmin activity could be recovered from the cells,–,–,–,–,–
Plg: native human plasminogen (glutamic acid N-terminal) purified from human plasma on lysine-Sepharose,–,–,–,–,–,111,83,0.003,0.09,–
aprotinin,–,–,–,–,–,93,99,–,–,–
"PAI-2: human type-2 plasminogen activator inhibitor purified from U937 cells (protein, UniProt P05120 1-415, looked up) Plasminogen activator …: MEDLCVANTLFALNLFKHLAKASPTQNLFLSPWSISSTMAMVYMGSRGSTEDQMAKVLQFNEVGANAVTPMTPENFTSCGFMQQIQKGSYPDAILQAQAADKIHSSFRSLSSAINASTGNYLLESVNKLFGEKSASFREEYIRLCQKYYSSEPQAVDFLECAEEARKKINSWVKTQTKGKIPNLLPEGSVDGDTRMVLVNAVYFKGKWKTPFEKKLNGLYPFRVNSAQRTPVQMMYLREKLNIGYIEDLKAQILELPYAGDVSMFLLLPDEIADVSTGLELLESEITYDKLNKWTSKDKMAEDEVEVYIPQFKLEEHYELRSILRSMGMEDAFNKGRANFSGMSERNDLFLSEVFHQAMVDVNEEGTEAAAGTGGVMTGRTGHGGPQFVADHPFLFLIMHKITNCILFFGRFSSP",–,–,–,–,–,89,77,–,–,86
